Source: article PMC7827406, “Structure–Activity Relationship (SAR) Study of Spautin-1 to Entail the Discovery of Novel NEK4 Inhibitors” (International Journal of Molecular Sciences, 2021)
Where two headings read alike, the source gives them in different places.

What was measured:
Experiment in all cases: biochemical
Set-up in all cases: Eurofins KinaseProfiler full panel at Km ATP, residual kinase activity (%) relative to DMSO
[1] = molecular target: T1, Abl(T315I)(h) (Homo sapiens, UniProt P00519, T315I)
T1 construct: gene ABL1
Summary of the method: (§1)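 Radiometric kinase activity assays were run with ATP at Km and compounds at 10 µM, and remaining activity (%) was reported. A separate competitive binding screen measured DNA-tagged kinase displaced from immobilized active-site ligands by qPCR, giving percent kinase still bound at 10 µM compound in DMSO.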

[2] = molecular target: T2, CDKL2(h) (Homo sapiens, UniProt Q92772)
T2 sequence (Q92772 1-493): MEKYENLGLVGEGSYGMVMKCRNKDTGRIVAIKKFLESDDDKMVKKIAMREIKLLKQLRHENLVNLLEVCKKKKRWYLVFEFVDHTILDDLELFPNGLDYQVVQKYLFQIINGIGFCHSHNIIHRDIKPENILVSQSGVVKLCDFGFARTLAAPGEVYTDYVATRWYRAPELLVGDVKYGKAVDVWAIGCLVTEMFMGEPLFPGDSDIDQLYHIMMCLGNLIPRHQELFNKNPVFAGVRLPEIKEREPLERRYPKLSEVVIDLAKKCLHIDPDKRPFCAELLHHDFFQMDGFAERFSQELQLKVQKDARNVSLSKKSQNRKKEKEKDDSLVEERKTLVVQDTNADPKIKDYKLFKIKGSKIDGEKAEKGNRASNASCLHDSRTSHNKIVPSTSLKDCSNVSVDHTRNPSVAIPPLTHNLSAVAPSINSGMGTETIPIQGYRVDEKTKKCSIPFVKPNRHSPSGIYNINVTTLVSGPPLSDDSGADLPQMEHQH
Summary of the method: as §1

[3] = molecular target: T3, CaMKIδ(h) (Homo sapiens, UniProt Q8IU85)
T3 construct: gene CAMK1D
Summary of the method: as §1

[4] = molecular target: T4, IGF-1R(h) (Homo sapiens, UniProt P08069)
T4 construct: gene IGF1R
Summary of the method: as §1

[5] = molecular target: T5, IGF-1R(h), activated (Homo sapiens, UniProt P08069)
T5 construct: gene IGF1R
Summary of the method: as §1

[6] = molecular target: T6, JNK1α1(h) (Homo sapiens, UniProt P45983)
T6 construct: gene MAPK8; isoform alpha1
Summary of the method: as §1

[7] = molecular target: PAK6(h) (Homo sapiens, UniProt Q9NQU5)
Summary of the method: as §1

[8] = molecular target: T7, TLK1(h) (Homo sapiens, UniProt Q9UKI8)
T7 sequence (Q9UKI8 1-766): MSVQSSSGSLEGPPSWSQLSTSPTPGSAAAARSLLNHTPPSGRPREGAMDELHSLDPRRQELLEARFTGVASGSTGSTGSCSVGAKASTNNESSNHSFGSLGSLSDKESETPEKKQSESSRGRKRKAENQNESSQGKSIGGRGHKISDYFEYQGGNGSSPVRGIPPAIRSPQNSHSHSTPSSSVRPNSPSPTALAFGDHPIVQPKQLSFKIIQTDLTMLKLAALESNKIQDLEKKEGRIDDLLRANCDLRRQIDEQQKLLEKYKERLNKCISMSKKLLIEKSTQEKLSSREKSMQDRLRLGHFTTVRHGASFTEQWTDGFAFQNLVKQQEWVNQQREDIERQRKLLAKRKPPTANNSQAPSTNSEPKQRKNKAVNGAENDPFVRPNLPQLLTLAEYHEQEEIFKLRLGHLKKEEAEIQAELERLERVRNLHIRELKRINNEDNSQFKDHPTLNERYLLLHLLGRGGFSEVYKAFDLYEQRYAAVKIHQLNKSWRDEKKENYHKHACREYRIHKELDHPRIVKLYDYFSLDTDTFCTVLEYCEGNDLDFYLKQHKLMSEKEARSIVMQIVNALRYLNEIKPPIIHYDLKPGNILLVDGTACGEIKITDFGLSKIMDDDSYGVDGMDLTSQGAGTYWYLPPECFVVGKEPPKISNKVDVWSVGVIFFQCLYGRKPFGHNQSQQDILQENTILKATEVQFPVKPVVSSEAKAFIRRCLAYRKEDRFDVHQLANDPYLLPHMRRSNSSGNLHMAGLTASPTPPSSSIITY
Summary of the method: as §1

[9] = read-out: Residual activity (%) 5at
[10] = read-out: Residual activity (%) 5as
[11] = read-out: Residual activity (%) 5ay
[12] = read-out: Residual activity (%) Spautin-1 5aa

Chain of PAK6(h) (Q9NQU5 whole entry): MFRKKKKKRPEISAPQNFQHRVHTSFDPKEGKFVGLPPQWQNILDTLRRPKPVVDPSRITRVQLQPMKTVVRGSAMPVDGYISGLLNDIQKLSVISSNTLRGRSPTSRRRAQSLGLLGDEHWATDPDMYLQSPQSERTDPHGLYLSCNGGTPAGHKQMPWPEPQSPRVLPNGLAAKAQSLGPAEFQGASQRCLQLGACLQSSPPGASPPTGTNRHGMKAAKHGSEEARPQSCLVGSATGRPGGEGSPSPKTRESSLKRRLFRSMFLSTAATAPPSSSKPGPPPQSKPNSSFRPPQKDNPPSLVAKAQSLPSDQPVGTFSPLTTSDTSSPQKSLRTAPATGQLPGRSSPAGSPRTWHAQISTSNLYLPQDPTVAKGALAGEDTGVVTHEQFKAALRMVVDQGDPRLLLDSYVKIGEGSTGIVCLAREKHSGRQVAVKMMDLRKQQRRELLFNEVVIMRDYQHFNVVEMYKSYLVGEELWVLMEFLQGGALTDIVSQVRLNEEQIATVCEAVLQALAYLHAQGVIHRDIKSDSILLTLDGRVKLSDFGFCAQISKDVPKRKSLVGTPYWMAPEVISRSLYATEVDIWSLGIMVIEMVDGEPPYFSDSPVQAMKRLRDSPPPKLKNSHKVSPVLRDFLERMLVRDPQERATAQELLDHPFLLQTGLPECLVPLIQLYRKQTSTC
T6 sequence (P45983 whole entry, canonical isoform): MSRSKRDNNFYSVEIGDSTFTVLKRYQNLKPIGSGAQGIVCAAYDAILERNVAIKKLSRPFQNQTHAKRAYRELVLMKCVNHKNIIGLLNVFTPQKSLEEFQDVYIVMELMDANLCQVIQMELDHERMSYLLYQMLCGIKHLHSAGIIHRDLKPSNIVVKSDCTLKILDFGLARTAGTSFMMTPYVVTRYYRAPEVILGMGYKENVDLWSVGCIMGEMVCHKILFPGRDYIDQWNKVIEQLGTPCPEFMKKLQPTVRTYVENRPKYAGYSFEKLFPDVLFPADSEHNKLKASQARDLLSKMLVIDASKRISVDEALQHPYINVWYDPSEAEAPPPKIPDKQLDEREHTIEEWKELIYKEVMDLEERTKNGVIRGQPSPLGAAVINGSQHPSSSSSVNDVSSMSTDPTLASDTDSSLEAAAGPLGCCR
T3 sequence (Q8IU85 whole entry): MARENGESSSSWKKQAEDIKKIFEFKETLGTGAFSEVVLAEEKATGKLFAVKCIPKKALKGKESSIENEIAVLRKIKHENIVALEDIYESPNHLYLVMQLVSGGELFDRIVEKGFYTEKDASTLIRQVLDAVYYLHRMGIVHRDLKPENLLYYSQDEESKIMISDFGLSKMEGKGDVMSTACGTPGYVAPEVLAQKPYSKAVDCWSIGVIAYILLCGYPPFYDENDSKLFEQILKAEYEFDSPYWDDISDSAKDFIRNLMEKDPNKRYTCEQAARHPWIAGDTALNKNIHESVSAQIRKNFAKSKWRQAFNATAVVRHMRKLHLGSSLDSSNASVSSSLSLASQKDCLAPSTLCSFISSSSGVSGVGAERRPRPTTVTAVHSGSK
T4 sequence (P08069 whole entry): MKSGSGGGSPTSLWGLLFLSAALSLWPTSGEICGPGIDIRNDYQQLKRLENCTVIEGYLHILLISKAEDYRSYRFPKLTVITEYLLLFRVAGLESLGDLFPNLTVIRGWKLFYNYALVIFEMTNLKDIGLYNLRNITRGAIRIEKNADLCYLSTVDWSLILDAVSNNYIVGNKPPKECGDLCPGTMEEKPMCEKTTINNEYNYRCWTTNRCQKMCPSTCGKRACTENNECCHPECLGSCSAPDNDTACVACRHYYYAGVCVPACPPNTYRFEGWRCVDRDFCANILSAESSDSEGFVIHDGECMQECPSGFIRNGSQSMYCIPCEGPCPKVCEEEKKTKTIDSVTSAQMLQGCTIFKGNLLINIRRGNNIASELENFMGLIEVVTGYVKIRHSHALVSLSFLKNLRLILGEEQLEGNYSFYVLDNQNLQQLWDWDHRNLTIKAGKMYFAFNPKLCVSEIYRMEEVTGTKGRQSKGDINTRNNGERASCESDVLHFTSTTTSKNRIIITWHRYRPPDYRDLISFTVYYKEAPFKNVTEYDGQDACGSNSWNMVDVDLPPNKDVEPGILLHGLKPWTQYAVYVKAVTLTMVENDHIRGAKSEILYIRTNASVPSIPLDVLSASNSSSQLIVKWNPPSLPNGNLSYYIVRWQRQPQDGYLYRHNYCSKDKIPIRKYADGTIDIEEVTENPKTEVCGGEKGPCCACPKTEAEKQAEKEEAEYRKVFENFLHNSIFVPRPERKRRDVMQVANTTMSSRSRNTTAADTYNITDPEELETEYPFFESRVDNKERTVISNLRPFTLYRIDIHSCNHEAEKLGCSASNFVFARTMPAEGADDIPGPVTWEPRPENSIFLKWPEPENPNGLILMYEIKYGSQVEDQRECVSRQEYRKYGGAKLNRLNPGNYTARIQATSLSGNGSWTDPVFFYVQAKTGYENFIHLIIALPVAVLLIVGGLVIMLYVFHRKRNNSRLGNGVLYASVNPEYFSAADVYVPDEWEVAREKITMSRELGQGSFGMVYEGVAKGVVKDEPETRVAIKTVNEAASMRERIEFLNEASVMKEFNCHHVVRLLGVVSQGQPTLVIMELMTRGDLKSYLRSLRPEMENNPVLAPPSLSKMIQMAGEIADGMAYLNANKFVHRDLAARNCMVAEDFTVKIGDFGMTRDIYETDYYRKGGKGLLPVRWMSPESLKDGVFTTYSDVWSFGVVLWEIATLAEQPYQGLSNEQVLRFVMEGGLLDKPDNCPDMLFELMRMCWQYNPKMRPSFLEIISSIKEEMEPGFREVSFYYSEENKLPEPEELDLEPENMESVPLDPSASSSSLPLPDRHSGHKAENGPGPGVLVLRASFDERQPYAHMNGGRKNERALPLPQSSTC
T5 sequence (P08069 whole entry): as above

Q: For `Fc1ccc2ncnc(NCCc3ccc(Cl)cc3)c2c1` [5at, N-[2-(4-Chlorophenyl)Ethyl]-6-Fluoro-4-Quinazolinamine], which remaining activity at 10 µM [1, 9] is on record?
A: 80%

Q: What about the remaining activity at 10 µM [2, 9] of the same compound?
A: 67%

Q: What about the remaining activity at 10 µM [3, 9] of the same compound?
A: 92%

Q: What about the remaining activity at 10 µM [4, 9] of the same compound?
A: 83%

Q: What about the remaining activity at 10 µM [5, 9] of the same compound?
A: 76%

Q: And the remaining activity at 10 µM [6, 9]?
A: 98%

Q: What about the remaining activity at 10 µM [7, 9] of the same compound?
A: 92%

Q: What about the remaining activity at 10 µM [8, 9] of the same compound?
A: 97%

Q: For `Fc1ccc(CCNc2ncnc3ccc(F)cc23)cc1` [5as, 6-Fluoro-N-[2-(4-Fluorophenyl)Ethyl]-4-Quinazolinamine], which remaining activity at 10 µM [1, 10] is on record?
A: 101%

Q: What about the remaining activity at 10 µM [2, 10] of the same compound?
A: 103%

Q: And the remaining activity at 10 µM [3, 10]?
A: 90%

Q: What about the remaining activity at 10 µM [4, 10] of the same compound?
A: 83%

Q: And the remaining activity at 10 µM [5, 10]?
A: 72%

Q: And the remaining activity at 10 µM [6, 10]?
A: 83%

Q: What about the remaining activity at 10 µM [7, 10] of the same compound?
A: 84%

Q: And the remaining activity at 10 µM [8, 10]?
A: 112%

Q: Which results are given for `COc1ccc2ncnc(Nc3cccc(F)c3)c2c1` [5ay, N-(3-Fluorophenyl)-6-Methoxy-4-Quinazolinamine]?
A: remaining activity at 10 µM [1, 11]: 91%; remaining activity at 10 µM [2, 11]: 67%; remaining activity at 10 µM [3, 11]: 89%; remaining activity at 10 µM [4, 11]: 101%; remaining activity at 10 µM [5, 11]: 73%; remaining activity at 10 µM [6, 11]: 94%; remaining activity at 10 µM [7, 11]: 86%; remaining activity at 10 µM [8, 11]: 107%

Q: What does the source list for `Fc1ccc(CNc2ncnc3ccc(F)cc23)cc1` [5aa, 6-Fluoro-N-(4-fluorobenzyl)-4-Quinazolinamine]?
A: remaining activity at 10 µM [1, 12]: 73%; remaining activity at 10 µM [2, 12]: 87%; remaining activity at 10 µM [3, 12]: 91%; remaining activity at 10 µM [4, 12]: 90%; remaining activity at 10 µM [5, 12]: 78%; remaining activity at 10 µM [6, 12]: 98%; remaining activity at 10 µM [7, 12]: 92%; remaining activity at 10 µM [8, 12]: 112%
